Measurements taken from US11547130B2, “Nanocomposite bacteriostatic material and a preparation method and an application thereof” (Tianjin University of Science and Technology, priority 2019, dated 2023).

Test system: Bacillus subtilis
Test: Shake-flask antibacterial test, viable count by dilution spread plate method
Type: cell-based
Protocol: Bacillus subtilis was selected as a strain for the antibacterial test. The Bacillus subtilis was cultured for overnight in a shake flask first, and a bacteria solution having a concentration of 10^8 CFU/mL was selected as a seed solution for later use. Multiple 100 mL triangular flasks provided with 30 mL of LB liquid medium were taken, and sterilized for 20 min at 121° C. The triangular flasks were divided into four groups, three triangular flasks in each group for parallel test.
(§1) The Bacillus subtilis solution having the concentration of 10^8 CFU/mL was inoculated to the above four groups as per an inoculum size of 2% (v/v), and respectively cultured for 4 h, 8 h, 12 h, 24 h and 28 h on a shaker, where a culture condition was 37° C. and 180 r/min. Then, a sample at every timing was taken, and a viable count in each shake flask was measured via a dilution spread plate method to embody the antibacterial activity.
as §1, with “r/min, for sampling.” for “r/min.”, “sample” for “sample at every timing”, “flask at every moment” for “flask”

**Q.** nisin was tested. Which “concentration of bacteria in the shake flask” value (Experimental example 1 (Embodiment 1 materials, nisin 1 g/L), 1 mL agent in 30 mL LB, 8-12 h in culture) did it give?
**A.** ≥ 10^7 CFU/mL

**Q.** And the “concentration of viable bacteria in the shake flask” value (Experimental example 1 (Embodiment 1 materials, nisin 1 g/L), 1 mL agent in 30 mL LB, 4 h in culture, 37° C.)?
**A.** ≥ 10^4 CFU/mL

**Q.** What about the “antibacterial activity in words” value (Experimental example 1 (nisin 1 g/L), nisin at 8 h, empty carrier at 24-28 h, nano-composite at 28 h) of the same substance?
**A.** lost bacteriostatic action at 8 h

**Q.** What about the “antibacterial activity in words” value (Experimental example 2 (Embodiment 2 materials, nisin 10 g/L), at 16 h) of the same substance?
**A.** greatly reduced
